Test results reported in US9546173B2 (Novartis AG, priority 2012, dated 2017).

The compounds below were run against activated ERK2 (Homo sapiens (Human), UniProt P28482) (assay: Activated ERK2 kinase assay (AlphaScreen, ERKtide peptide phosphorylation)). Conditions: […] ERK2, 200 nM ERKtide peptide, 35 μM ATP, 30 min preincubation; read-out: ERK2 IC50.
Assay type: biochemical
Excerpt: Production of Activated ERK2 Protein:
Activated ERK2 protein was generated in insect cells by co-expression with a constitutively active form of MEK1. The ERK2 protein was expressed and purified as a nHis-PreScission-ERK2 tagged protein and then proteolytically processed to the full-length wild-type protein. […] Double-phosphorylated ERK2 protein was purified from the mixture by mono-Q column separation.
Activated ERK2 Kinase Assay:
A 16-point, half-log dilution series of compounds at 41× final concentration was used for generating IC50 curves. Compound dilution series were prepared in 100% DMSO. ERK2 was preincubated with compounds for 30 minutes at ambient temperature. Reaction was initiated by addition of a substrate cocktail of ERKtide peptide and ATP and was allowed to proceed for 2-3 hours at ambient temperature. Reaction was terminated by addition of 10 μL of a 2× stop buffer consisting of 100 mM Tris-Cl [pH 7.5], 25 mM EDTA, 0.01% Tween 20, 10 μg/mL of AlphaScreen Protein A Acceptor Beads, 10 μg/mL of Streptavidin Donor Beads (PerkinElmer, Waltham, Mass.), and 1.4 μg/mL phospho-EGF Receptor (Thr669) antibody (Cat #3056, Cell Signaling Technology, Danvers, Mass.). Terminated reactions were read, after overnight incubation in the dark, on an EnVision Multilabel Plate Reader (PerkinElmer, Waltham, Mass.), with excitation and emission wavelengths set to 680 nm and 570 nm, respectively. IC50 values were determined using a four-parameter fit.

activated ERK2, sequence (P28482 whole entry): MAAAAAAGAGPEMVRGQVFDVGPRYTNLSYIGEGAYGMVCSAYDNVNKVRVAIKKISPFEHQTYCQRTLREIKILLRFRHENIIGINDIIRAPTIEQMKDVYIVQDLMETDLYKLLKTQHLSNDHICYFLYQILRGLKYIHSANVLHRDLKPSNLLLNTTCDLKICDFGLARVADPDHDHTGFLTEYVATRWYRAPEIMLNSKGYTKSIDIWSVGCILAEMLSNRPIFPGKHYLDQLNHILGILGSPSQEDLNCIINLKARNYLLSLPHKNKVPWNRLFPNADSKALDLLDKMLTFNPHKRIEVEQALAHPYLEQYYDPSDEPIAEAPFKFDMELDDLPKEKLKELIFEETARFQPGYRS

Row | Compound | IC50
1 | CC1(C)c2cnc(NC3CCOCC3)nc2CN1C(=O)NCc1ccccc1S(C)(=O)=O [compound 112, 5,5-dimethyl-N-(2-(methylsulfonyl)benzyl)-2-((tetrahydro-2H-pyran-4-yl)amino)-5H-pyrrolo[3,4-d]pyrimidine-6(7H)-carboxamide] | 0.806 µM
2 | CC(=O)NCCNc1ncc2c(n1)CN(C(=O)N[C@H](CO)c1ccccc1)C2(C)C [compound 56, (S)-2-((2-acetamidoethyl)amino)-N-(2-hydroxy-1-phenylethyl)-5,5-dimethyl-5H-pyrrolo[3,4-d]pyrimidine-6(7H)-carboxamide] | 3.5 µM
3 | CC1(C)c2cnc(NC3CCS(=O)(=O)CC3)nc2CN1C(=O)N[C@H](CO)c1ccccc1 [compound 10, (S)-2-((1,1-dioxidotetrahydro-2H-thiopyran-4-yl)amino)-N-(2-hydroxy-1-phenylethyl)-5,5-dimethyl-5H-pyrrolo[3,4-d]pyrimidine-6(7H)-carboxamide] | 0.722 µM
4 | CC1(C)c2cnc(NC3CCOCC3)nc2CN1C(=O)NCc1ccccc1Cl [compound 29, N-(2-chlorobenzyl)-5,5-dimethyl-2-((tetrahydro-2H-pyran-4-yl)amino)-5H-pyrrolo[3,4-d]pyrimidine-6(7H)-carboxamide] | 0.159 µM
5 | CC1(C)c2cnc(NC3CCOCC3)nc2CN1C(=O)NC1CC(CO)CN(Cc2ccccc2F)C1 (stereo not shown) [compound 147, N-(1-(2-fluorobenzyl)-5-(hydroxymethyl)piperidin-3-yl)-5,5-dimethyl-2-((tetrahydro-2H-pyran-4-yl)amino)-5H-pyrrolo[3,4-d]pyrimidine-6(7H)-carboxamide] | 0.214 µM
6 | CC1(C)c2cnc(NC3CCOCC3)nc2CN1C(=O)N[C@@H]1c2ccccc2C[C@@H]1O [compound 39, N-((1R,2S)-2-hydroxy-2,3-dihydro-1H-inden-1-yl)-5,5-dimethyl-2-((tetrahydro-2H-pyran-4-yl)amino)-5H-pyrrolo[3,4-d]pyrimidine-6(7H)-carboxamide] | < 25 µM
7 | CN1CCC(Nc2ncc3c(n2)CN(C(=O)N[C@H](CO)c2ccccc2)C3(C)C)CC1=O (stereo partly drawn) [compound 83, N-((S)-2-hydroxy-1-phenylethyl)-5,5-dimethyl-2-((1-methyl-2-oxopiperidin-4-yl)amino)-5H-pyrrolo[3,4-d]pyrimidine-6(7H)-carboxamide] | 1.16 µM
8 | C[C@@H](NC(=O)N1Cc2nc(NC3CCOCC3)ncc2C1(C)CO)c1ccccc1 (stereo partly drawn) [compound 92, 5-(hydroxymethyl)-5-methyl-N-((R)-1-phenylethyl)-2-((tetrahydro-2H-pyran-4-yl)amino)-5H-pyrrolo[3,4-d]pyrimidine-6(7H)-carboxamide] | 1.53 µM
9 | CC1(C)c2cnc(NC3CCOCC3)nc2CN1C(=O)N[C@@H]1CCCN(S(=O)(=O)c2ccc(Cl)cc2)C1 [compound 119, (R)-N-(1-((4-chlorophenyl)sulfonyl)piperidin-3-yl)-5,5-dimethyl-2-((tetrahydro-2H-pyran-4-yl)amino)-5H-pyrrolo[3,4-d]pyrimidine-6(7H)-carboxamide] | 0.156 µM
10 | Cn1ccc(Nc2ncc3c(n2)CN(C(=O)N[C@H](CO)c2ccccc2)C3(C)C)n1 [compound 71, (S)-N-(2-hydroxy-1-phenylethyl)-5,5-dimethyl-2-((1-methyl-1H-pyrazol-3-yl)amino)-5H-pyrrolo[3,4-d]pyrimidine-6(7H)-carboxamide] | 2.55 µM
11 | COCCNc1ncc2c(n1)CN(C(=O)N[C@H](CO)c1ccccc1)C2(C)C [compound 57, (S)-N-(2-hydroxy-1-phenylethyl)-2-((2-methoxyethyl)amino)-5,5-dimethyl-5H-pyrrolo[3,4-d]pyrimidine-6(7H)-carboxamide] | 3.48 µM
12 | CC(=O)N1CC[C@@H](Nc2ncc3c(n2)CN(C(=O)N[C@H](CO)c2ccccc2)C3(C)C)C1 [compound 64, 2-(((R)-1-acetylpyrrolidin-3-yl)amino)-N-((S)-2-hydroxy-1-phenylethyl)-5,5-dimethyl-5H-pyrrolo[3,4-d]pyrimidine-6(7H)-carboxamide] | 0.74 µM

Further compounds by falling IC50, results first:

Row | IC50 | Compound
13 | 0.131 µM | CC1(C)c2cnc(NC3CCOCC3)nc2CN1C(=O)NCc1nc(-c2ccc(F)cc2)cs1 [compound 89, N-((4-(4-fluorophenyl)thiazol-2-yl)methyl)-5,5-dimethyl-2-((tetrahydro-2H-pyran-4-yl)amino)-5H-pyrrolo[3,4-d]pyrimidine-6(7H)-carboxamide]
14 | 0.106 µM | CC1(C)c2cnc(NC3CCOCC3)nc2CN1C(=O)NCc1ccc(Cl)cn1 [compound 35, N-((5-chloropyridin-2-yl)methyl)-5,5-dimethyl-2-((tetrahydro-2H-pyran-4-yl)amino)-5H-pyrrolo[3,4-d]pyrimidine-6(7H)-carboxamide]
15 | 0.091 µM | Cn1cc(-c2cccc(CNC(=O)N3Cc4nc(NC5CCOCC5)ncc4C3(C)C)c2)cn1 [compound 87, 5,5-dimethyl-N-(3-(1-methyl-1H-pyrazol-4-yl)benzyl)-2-((tetrahydro-2H-pyran-4-yl)amino)-5H-pyrrolo[3,4-d]pyrimidine-6(7H)-carboxamide]
16 | 0.053 µM | CC1(C)c2cnc(NC3CCC(=O)NC3)nc2CN1C(=O)N[C@H](CO)c1ccccc1 (stereo partly drawn) [compound 85, N-((S)-2-hydroxy-1-phenylethyl)-5,5-dimethyl-2-((6-oxopiperidin-3-yl)amino)-5H-pyrrolo[3,4-d]pyrimidine-6(7H)-carboxamide]
17 | 0.038 µM | CC1(C)c2cnc(NC3CCOCC3)nc2CN1C(=O)NCc1ccc(C#N)cc1 [compound 122, N-(4-cyanobenzyl)-5,5-dimethyl-2-((tetrahydro-2H-pyran-4-yl)amino)-5H-pyrrolo[3,4-d]pyrimidine-6(7H)-carboxamide]
18 | 0.038 µM | CC1(C)c2cnc(NC3CCOCC3)nc2CN1C(=O)NCc1cccc(C#N)c1 [compound 135, N-(3-cyanobenzyl)-5,5-dimethyl-2-((tetrahydro-2H-pyran-4-yl)amino)-5H-pyrrolo[3,4-d]pyrimidine-6(7H)-carboxamide]
19 | 0.023 µM | CC1(C)c2cnc(NC3CCOCC3)nc2CN1C(=O)N[C@@H]1CCCN(S(=O)(=O)c2cccc(Cl)c2)C1 [compound 118, (R)-N-(1-((3-chlorophenyl)sulfonyl)piperidin-3-yl)-5,5-dimethyl-2-((tetrahydro-2H-pyran-4-yl)amino)-5H-pyrrolo[3,4-d]pyrimidine-6(7H)-carboxamide]
20 | 0.022 µM | CC[C@]1(C)c2cnc(NC3CCOCC3)nc2CN1C(=O)N[C@H](CO)c1ccccc1 [compound 80, (R)-5-ethyl-N-((S)-2-hydroxy-1-phenylethyl)-5-methyl-2-((tetrahydro-2H-pyran-4-yl)amino)-5H-pyrrolo[3,4-d]pyrimidine-6(7H)-carboxamide]
21 | 0.021 µM | Cc1ccc(CNC(=O)N2Cc3nc(NC4CCOCC4)ncc3C2(C)C)cc1 [compound 129, 5,5-dimethyl-N-(4-methylbenzyl)-2-((tetrahydro-2H-pyran-4-yl)amino)-5H-pyrrolo[3,4-d]pyrimidine-6(7H)-carboxamide]
22 | 0.021 µM | C[C@@H](NC(=O)N1Cc2nc(NC3CCOCC3)ncc2C1(C)C)c1ccc(C#N)cc1 [compound 136, (R)-N-(1-(4-cyanophenyl)ethyl)-5,5-dimethyl-2-((tetrahydro-2H-pyran-4-yl)amino)-5H-pyrrolo[3,4-d]pyrimidine-6(7H)-carboxamide]
23 | 0.019 µM | CC1(C)c2cnc(NC3CCOCC3)nc2CN1C(=O)NCc1ccc(S(=O)(=O)C(F)(F)F)cc1 [compound 137, 5,5-dimethyl-2-((tetrahydro-2H-pyran-4-yl)amino)-N-(4-((trifluoromethyl)sulfonyl)benzyl)-5H-pyrrolo[3,4-d]pyrimidine-6(7H)-carboxamide]
24 | 0.013 µM | O=C(N[C@H](CO)c1ccccc1)N1Cc2nc(NC3CCOCC3)ncc2C12CCC2 [compound 77, (S)-N-(2-hydroxy-1-phenylethyl)-2′-((tetrahydro-2H-pyran-4-yl)amino)spiro[cyclobutane-1,5′-pyrrolo[3,4-d]pyrimidine]-6′(7′H)-carboxamide]
25 | 0.011 µM | CC1(C)c2cnc(NC3CCOCC3)nc2CN1C(=O)NCc1ccc(SC(F)(F)F)cc1 [compound 132, 5,5-dimethyl-2-((tetrahydro-2H-pyran-4-yl)amino)-N-(4-((trifluoromethyl)thio)benzyl)-5H-pyrrolo[3,4-d]pyrimidine-6(7H)-carboxamide]
26 | 0.011 µM | CC1(C)c2cnc(NC3CCOCC3)nc2CN1C(=O)NCc1ccc(Oc2ccccc2)cc1 [compound 133, 5,5-dimethyl-N-(4-phenoxybenzyl)-2-((tetrahydro-2H-pyran-4-yl)amino)-5H-pyrrolo[3,4-d]pyrimidine-6(7H)-carboxamide]
27 | 0.01 µM | CC1(C)c2cnc(NC3CCOCC3)nc2CN1C(=O)NCc1ccc(Cl)cc1 [compound 28, N-(4-chlorobenzyl)-5,5-dimethyl-2-((tetrahydro-2H-pyran-4-yl)amino)-5H-pyrrolo[3,4-d]pyrimidine-6(7H)-carboxamide]
28 | 0.01 µM | CC1(C)c2cnc(NC3CCOCC3)nc2CN1C(=O)NCc1ccc(C(F)(F)F)cc1 [compound 121, 5,5-dimethyl-2-((tetrahydro-2H-pyran-4-yl)amino)-N-(4-(trifluoromethyl)benzyl)-5H-pyrrolo[3,4-d]pyrimidine-6(7H)-carboxamide]
